From patent US10787436B2, “Inhibitors of cyclin-dependent kinase 7 (CDK7)” (Dana-Farber Cancer Institute, Inc., priority 2012, dated 2020)
Like-named read-outs stand apart in the source and are kept apart here.

What was measured:
[1] = test system: panel of >300 diverse cancer cell lines; assay: Cancer cell line panel profiling, alamarBlue, 72 hours; assay type: cell-based, human
Method: At indicated time points, cellular lysates were harvested at the indicated times points and immunoblotted for the indicated proteins. […] Anti-proliferative effects were determined using cell titer glo analysis. […] Anti-proliferative effects were determined using alamarBlue® analysis. […] Anti-proliferative effects were determined using cell titer glo analysis. […] Dose: i.v. 1 mg/kg and p.o. 10 mg/kg.
(§1) Proliferation assays were conducted over a 48-72 hour time period (as noted). […] Cancer cell line profiling was performed over a 72 time period using Alamar Blue reagent.
CDK7 inhibitors display strong antiproflierative effects in leukemia and lymphoma cancer cells. However, a better definition of the breadth of their therapeutic potential in other cell types has not been reported. […] The rationale for examining such a large panel of human cancer cell lines is based on the fact that there is substantial genetic heterogeneity among human tumor cells, even with the same histological origins. In general, the data reveal a bimodal distribution with cell lines displaying exquisite sensitivity or apparent complete insensitivity to the compound.

MCF10A = assay: Proliferation assay, CellTiter-Glo, 72 hour; assay type: cell-based; settings: non-tumorigenic breast epithelial cell line, read-out: Inhibition of proliferation, MCF10A
Hs822T = assay: Proliferation assay, CellTiter-Glo, 72 hour; assay type: cell-based; settings: Ewing's sarcoma cell line, read-out: Inhibition of proliferation, Hs822T
CDK8/cyclin C = CDK8/cyclin C (Homo sapiens (Human), UniProt P49336); assay: Life Technologies LanthaScreen Eu kinase assay, CDK8; assay type: binding; settings: read-out: Calculated IC50, CDK8/cyclin C
Sequence of CDK8/cyclin C (P49336 whole entry): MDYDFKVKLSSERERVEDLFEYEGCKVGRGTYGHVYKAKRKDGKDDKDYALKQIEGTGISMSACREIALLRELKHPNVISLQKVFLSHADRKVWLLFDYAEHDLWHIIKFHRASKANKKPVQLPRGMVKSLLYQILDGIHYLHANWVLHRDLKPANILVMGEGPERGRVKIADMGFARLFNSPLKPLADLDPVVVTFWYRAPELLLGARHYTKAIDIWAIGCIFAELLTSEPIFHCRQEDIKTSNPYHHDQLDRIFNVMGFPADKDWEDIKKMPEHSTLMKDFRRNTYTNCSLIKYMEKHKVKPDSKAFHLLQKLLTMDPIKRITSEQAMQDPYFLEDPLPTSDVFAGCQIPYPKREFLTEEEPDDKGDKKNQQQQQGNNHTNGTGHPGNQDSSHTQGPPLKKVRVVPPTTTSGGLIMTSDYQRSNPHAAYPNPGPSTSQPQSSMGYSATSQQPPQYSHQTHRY
Sequence of CDK8/cyclin C (P24863 whole entry partner): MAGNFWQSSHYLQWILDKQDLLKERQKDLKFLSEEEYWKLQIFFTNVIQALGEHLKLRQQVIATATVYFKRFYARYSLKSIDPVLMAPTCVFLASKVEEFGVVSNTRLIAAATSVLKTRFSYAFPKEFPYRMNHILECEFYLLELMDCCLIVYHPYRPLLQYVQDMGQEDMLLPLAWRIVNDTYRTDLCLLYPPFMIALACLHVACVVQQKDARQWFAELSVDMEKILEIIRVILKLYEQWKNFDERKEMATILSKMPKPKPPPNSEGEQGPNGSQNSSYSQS

MV4-11 = assay: Proliferation assay, CellTiter-Glo, 72 hour; assay type: cell-based; settings: blood cancer cell line, read-out: Inhibition of proliferation, MV4-11
SKBR3 = assay: Proliferation assay, CellTiter-Glo, 72 hour; assay type: cell-based; settings: breast cancer cell line, read-out: Inhibition of proliferation, SKBR3
JNK2 (MAPK9) = JNK2 (MAPK9) (Homo sapiens (Human), UniProt P45984); assay: Life Technologies Z'-Lyte kinase assay, JNK2; assay type: biochemical
Sequence of JNK2 (MAPK9) (P45984 whole entry): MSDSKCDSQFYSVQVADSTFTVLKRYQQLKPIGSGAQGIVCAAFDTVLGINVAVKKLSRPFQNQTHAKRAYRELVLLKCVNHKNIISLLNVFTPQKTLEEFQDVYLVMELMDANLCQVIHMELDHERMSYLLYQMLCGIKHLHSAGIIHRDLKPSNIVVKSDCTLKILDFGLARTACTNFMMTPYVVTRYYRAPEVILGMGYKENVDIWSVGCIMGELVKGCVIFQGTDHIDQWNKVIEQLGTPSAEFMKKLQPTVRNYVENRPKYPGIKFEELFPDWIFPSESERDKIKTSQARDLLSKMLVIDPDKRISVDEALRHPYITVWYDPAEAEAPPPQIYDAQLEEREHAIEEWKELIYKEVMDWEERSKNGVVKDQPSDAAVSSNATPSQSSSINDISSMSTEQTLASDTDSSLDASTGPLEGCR

[2] = test system: multiple myeloma cell lines; assay: Anti-proliferative effect in multiple myeloma cell lines with or without stromal cells, cell titer glo, 48-hour; assay type: cell-based; settings: 48-hour treatment
Method: Clinical isolates of CLL were cultured with compounds of Formula (I) or flavopiridol and assessed for cell death after a 24 hour time course by Annexin V staining. […] Anti-proliferative effect was measured using cell titer glo analysis.
as §1

A673 = assay: Proliferation assay, CellTiter-Glo, 72 hour; assay type: cell-based; settings: Ewing's sarcoma cell line, read-out: Inhibition of proliferation, A673
RNAP II occupancy = assay: RNAP II ChIP-seq in Jurkat cells; assay type: cell-based, human; settings: 250 nM for 6 hours
Method: After the indicated treatment time, cells were crosslinked for 10 minutes at room temperature by the addition of one-tenth of the volume of 11% formaldehyde solution (11% formaldehyde, 50 mM Hepes (pH 7.3), 100 mM NaCl, 1 mM EDTA (pH 8.0), 0.5 mM EGTA (pH 8.0)) to the growth media followed by two washes with PBS. Following the final PBS wash, supernatant was aspirated, and the cell pellet was flash frozen in liquid nitrogen. Frozen crosslinked cells were stored at −80° C.
50 μl of Dynal magnetic beads (Sigma) were blocked with 0.5% BSA (w/v) in PBS. Magnetic beads were bound with 5 μg of the indicated antibody. Antibodies used are as follows: Total RNAP II (Rpb1 N-terminus): Santa Cruz sc-899; CDK7: Bethyl A300-405A. Crosslinked cells were lysed with lysis buffer 1 (50 mM Hepes (pH 7.3), 140 mM NaCl, 1 mM EDTA, 10% glycerol, 0.5% NP-40, and 0.25% Triton X-100) and washed with lysis buffer 2 (10 mM Tris-HCl (pH 8.0), 200 mM NaCl, 1 mM EDTA (pH 8.0) and 0.5 mM EGTA (pH 8.0)). […]
Illumina sequencing libraries were generated, and data were processed according to Lin et al., Cell (2012) 151:56-67. […] These criteria preserved only reads that mapped uniquely to the genome with 1 or fewer mismatches. […]

- IC50 ([1]; panel of >300 cancer cell lines, read-out: IC50 values in 24% of cell lines): > 2500 nM
- IC50 ([1]; read-out: IC50s in 94% (132/140) of leukemia cell lines): < 200 nM
- IC50 ([1]; read-out: IC50s in all (48/48) lymphoma cell lines): < 150 nM
- IC50 ([1]; read-out: IC50 values in 70% of cell lines, panel of >300 cancer cell lines): < 200 nM
- IC50 (CDK8/cyclin C): ≥ 1000 nM
- IC50 (MV4-11): < 500 nM
- IC50 (SKBR3): 500 to 5000 nM
- IC50 (JNK2 (MAPK9); read-out: Calculated IC50, JNK2 (MAPK9)): 100 to 1000 nM
- Percent inhibition, JNK2 ^b (JNK2 (MAPK9); superscript b (footnote not given; tested at 100 nM and 1 μM)): C (less than 50% inhibition)
SMILES: CN(C)C/C=C/C(=O)Nc1ccc(C(=O)Nc2cccc(Nc3ncc(Cl)c(-c4c[nH]c5ccccc45)n3)c2)cc1 [Formula I-23]
- IC50 (MCF10A): < 500 nM
- IC50 (Hs822T): < 500 nM
- Anti-proliferative activity in MM cell lines [2]: highly effective anti-proliferative activity
- IC50 (A673): < 500 nM
- RNAP II occupancy at the promoter proximal pause site (RNAP II occupancy): drastically diminished
